Results: patent publication US5466858A, “Method of producing straight-chain acrylonitrile dimers” (priority 1993, dated 1995)
Read-outs that look alike come from different tables or passages of the source.

[1] = in water, ionic strength 0 to 0.1 mole/liter, 25° C.

Row | pKa (water) | SMILES | pKa [1]
1 | 3.70 | CC(=O)c1ccc(C(=O)O)cc1 [p-acetylbenzoic acid] | 
2 | 3.46 | O=C(O)c1ccccc1-c1ccccc1 [o-phenylbenzoic acid] | 
3 | 1.48 | O=C(O)c1c(F)c(F)c(F)c(F)c1F [pentafluorobenzoic acid, reference compound] | 
4 |  | O=C(O)c1cccc(Cl)c1 [m-chlorobenzoic acid] | 3.82
5 | 3.79 | CC(=O)c1ccccc1C(=O)O [o-acetylbenzoic acid] | 
6 |  | O=C(O)c1ccccc1F [o-fluorobenzoic acid] | 3.27
7 | 2.92 | O=C(O)c1ccccc1Cl [o-chlorobenzoic acid] | 
8 | 2.85 | O=C(O)c1ccccc1Br [o-bromobenzoic acid] | 
9 |  | Nc1ccccc1C(=O)O [Anthranilic acid] | 4.79
10 |  | O=C(O)c1ccc(Cl)c(Cl)c1 [3,4-dichlorobenzoic acid] | 3.64
11 | 4.27 | Cc1cccc(C(=O)O)c1 [m-methylbenzoic acid, reference compound] | 
12 |  | N#Cc1cccc(C(=O)O)c1 [m-cyanobenzoic acid] | 3.60
13 |  | O=C(O)c1c(Cl)cccc1Cl [2,6-dichlorobenzoic acid] | 1.82
14 | 2.31 | O=C(O)c1c(F)cccc1F [2,6-difluorobenzoic acid] | 
15 |  | CNc1ccccc1C(=O)O [N-methylanthranilic acid] | 5.34
16 |  | COc1ccccc1C(=O)O [o-methoxybenzoic acid] | 4.09
17 | 3.77 | O=C(O)c1cccc(C(F)(F)F)c1 [m-trifluoromethylbenzoic acid] | 
